Assays:
[1] = Test 4: percent generation of Compound (IV) in human small intestine S9; assay type: in vitro ADME; conditions: 3 μM, 1 mg protein/mL, 37° C. x 1 hr
Experimental: A test to determine the percent generation of Compound (IV) in human intestine S9 was conducted for Inventive Compounds (I) in accordance with the following method.
Inventive Compounds were incubated (37° C.×1 hr) in a 0.1 M phosphate buffer (pH 7.4) together with a human intestine S9 fraction (Xenotech, LLC/CP710571/Lot, 710571) in the presence of Mg^2+ (5 mM), Ca^2+ (5 mM) and Zn^2+ (0.1 mM). The final concentrations of each Inventive Compound and the small intestine S9 protein were adjusted to 3 μM and 1 mg protein/mL, respectively. To the incubated reaction mixture, 3 volumes of DMSO was added, followed by stirring and centrifugation at 3000 rpm (4° C.×10 min). The resulting supernatant was subjected to analysis by a liquid chromatography-tandem mass spectrometry (LC-MS/MS) system. The lower quantitation limit was 0.3 μM for both Inventive Compounds (I) and Compound (IV).
The LC-MS/MS system used in the measurement was equipped with Waters XBridge Amide (3.5 μm, 50 mm×4.6 mm I.D.), Waters Atlantis T3 (3 μm, 50 mm×4.6 mm I.D.), or Shimadzu Shim-pack XR-ODS (2.2 μm, 30 mm×3.0 mm I.D.) as a separation column. The mobile phase was a 0.1% formic acid/acetonitrile solution or a 0.1% formic acid/methanol solution (flow rate: 0.7-1.3 mL/min) and the analyte was eluted in a linear gradient mode. MS/MS detection of Inventive Compounds (I) and Compound (IV) was performed using an API4000 or Triple quad 5500 system with TurbolonSpray interface (both being products of AB SCIEX) in either a positive or negative ion detection mode. The percent generation of Compound (IV) in human small intestine S9 is shown in the following Table 6 with respect to Inventive Compounds.

[2] = Test 2: generation of Compound (IV) in human hepatic microsomes; assay type: in vitro ADME; conditions: human hepatic microsome
Experimental: A test to determine the percent generation of Compound (IV) in human and monkey hepatic microsomes was conducted for Inventive Compounds (I) in accordance with the following method. As a control for comparison, an ethyl ester form of Compound (IV) (Reference Example 1) was used.
A test compound was incubated (37° C.×15 min) in a 0.250 M phosphate buffer (pH 7.4) containing 69 mM KCl, together with a human hepatic microsome (Ms) fraction (Xenotech/H630B/lot, 0810472) or a monkey Ms fraction (BD Biosciences/452413/lot, 94518) in the presence of a NADPH generation system (0.16 mM NADP^+, 2.4 mM MgCl2, 1.5 mM glucose-6-phosphate). The final concentrations of the test compound and hepatic Ms protein were adjusted to 3 μM and 1 mg protein/mL, respectively. To the incubated reaction mixture, 2 volumes of DMSO was added, followed by stirring and centrifugation at 3000 rpm (4° C.×10 min) The resulting supernatant was subjected to analysis by a liquid chromatography-tandem mass spectrometry (LC-MS/MS) system. The lower quantitation limit was 0.3 μM for both the test compound and Compound (IV).

[3] = Test 1: Solution Stability Test; assay type: physicochemical; conditions: 37° C., one hour, about 50 μg/mL; for Compound's percent residue (%) pH 6.5: 20 mM phosphate buffer (pH 6.5); for Compound's percent residue (%) pH 1.2: hydrochloric acid solution (pH 1.2)
Experimental: Inventive Compounds (I) were tested for their stability in solutions simulating the gastric and small intestine's digestive fluids identified below.
The percent residues of Inventive Compounds (I) in a hydrochloric acid solution (pH 1.2) and 20 mM phosphate buffer (pH 6.5) were measured in accordance with the following test method.
A test compound was dissolved in a hydrochloric acid solution (pH 1.2) containing hydrochloric acid and sodium chloride or a 20 mM phosphate buffer (pH 6.5) containing disodium hydrogenphosphate, sodium dihydrogenphosphate and sodium chloride to prepare a solution with a concentration of about 50 μg/mL (near the solubility if undissolved). The solution was incubated at 37° C. for an hour and the compound's concentration before and after the incubation was quantified by high-performance liquid chromatography to calculate the percent residue of the compound.

[4] = Test 5: plasma concentrations of Compound (IV) in monkey after oral administration; assay type: in vivo, cynomolgus monkeys; conditions: oral 4.92 μmol/kg, male cynomolgus monkeys (fed)
Experimental: A test to measure the plasma concentration of Compound (IV) upon oral administration of Compound (IV) and Inventive Compounds (I) was conducted in accordance with the following method.
Compound (IV) or Inventive Compounds (I) was orally administered to male cynomolgus monkeys (fed condition) at a dose of 4.92 μmol/kg (vehicle: 0.5% methyl cellulose (MC) solution; administered at a dose of 5 mL/kg).
Two and 4 hours after the oral administration, approximately 0.7 mL of blood was taken from the cephalic vein (anticoagulant: EDTA-2K). The plasma recovered by centrifugation (3000 rpm, 4° C.×10 min) was stored frozen at −80° C. until use for analysis. In the case of analysis, 50 μL of the plasma sample was thawed under cooling with ice and after adding 200 μL of a liquid acetonitrile/methanol mixture containing an internal standard substance, the resulting mixture was stirred and centrifuged (4° C.×10 min); the resulting supernatant was subjected to LC-MS/MS analysis. The lower quantitation limits of Inventive Compounds (I) and Compound (IV) were 1 ng/mL and 3 ng/mL, respectively.

Row | SMILES | Percent generation (%) of Compound IV in human small intestine S9 [1] | Compound's percent residue (%) pH 6.5 [3] | Compound's percent residue (%) pH 1.2 [3] | also measured
1 | C[C@H](OC(=O)[C@H]1[C@@H]2C[C@H](F)[C@@](N)(C(=O)O)[C@@H]21)OC(=O)C12CC3CC(CC(C3)C1)C2.Cl | – | – | – | melting point: 164 °C (dec.)
2 | Cl.O=C(O)[C@H]1[C@@H]2C[C@H](F)[C@@](NC(=O)[C@@H]3CCCN3)(C(=O)O)[C@@H]21 [Ex. D-10, (1S,2S,3S,5R,6S)-3-fluoro-2-((S)-pyrrolidine-2-(carboxyamide))bicyclo[3.1.0]hexane-2,6-dicarboxylic acid hydrochloride] | <10% | – | – | –
3 | CCOC(=O)[C@H]1[C@@H]2C[C@H](F)[C@@](N)(C(=O)O)[C@@H]21 [Ref. Ex. 1, (1S,2S,3S,5R,6S)-2-amino-6-(ethoxycarbonyl)-3-fluorobicyclo[3.1.0]hexane-2-carboxylic acid] | – | – | – | test compound remaining unchanged [2]: approximately 100%
4 | CCC[C@H](N)C(=O)N[C@]1(C(=O)O)[C@H]2[C@@H](C[C@@H]1F)[C@@H]2C(=O)O.Cl [Ex. D-4, (1S,2S,3S,5R,6S)-2-((S)-2-amino-4-methylbutanamide)-3-fluorobicyclo[3.1.0]hexane-2,6-dicarboxylic acid hydrochloride] | <10% | 100% | 101% | –
5 | C[C@H](N)C(=O)N[C@@H](C)C(=O)N[C@]1(C(=O)O)[C@H]2[C@@H](C[C@@H]1F)[C@@H]2C(=O)O.Cl [Ex. D-8, (1S,2S,3S,5R,6S)-2-((S)-2-((S)-2-aminopropanamide)propanamide)-3-fluorobicyclo[3.1.0]hexane-2,6-dicarboxylic acid hydrochloride] | 11.7% | – | – | –
6 | CC[C@H](C)[C@H](N)C(=O)N[C@]1(C(=O)O)[C@H]2[C@@H](C[C@@H]1F)[C@@H]2C(=O)O.Cl [Ex. D-6, (1S,2S,3S,5R,6S)-2-((2S,3S)-2-amino-3-methylpentanamide)-3-fluorobicyclo[3.1.0]hexane-2,6-dicarboxylic acid hydrochloride] | <10% | 101% | 101% | –
7 | CSCC[C@@H](N)C(=O)N[C@]1(C(=O)O)[C@H]2[C@@H](C[C@@H]1F)[C@@H]2C(=O)O.Cl [Ex. D-11, (1S,2S,3S,5R,6S)-2-((R)-2-amino-4-(methylthio)butanamide)-3-fluorobicyclo[3.1.0]hexane-2,6-dicarboxylic acid hydrochloride] | <10% | – | – | –
8 | Cl.N[C@@H](Cc1ccccc1)C(=O)N[C@]1(C(=O)O)[C@H]2[C@@H](C[C@@H]1F)[C@@H]2C(=O)O [Ex. D-9, (1S,2S,3S,5R,6S)-2-((S)-2-amino-3-phenylpropanamide)-3-fluorobicyclo[3.1.0]hexane-2,6-dicarboxylic acid hydrochloride] | <10% | – | – | –
9 | CC(C)OC(=O)OC(C)OC(=O)[C@H]1[C@@H]2C[C@H](F)[C@@](N)(C(=O)O)[C@@H]21.O=C(O)C(F)(F)F (stereo partly drawn) [Ex. A-15, (1S,2S,3S,5R,6S)-2-amino-3-fluoro-6-((1-((isopropyloxycarbonyl)oxy)ethoxy)carbonyl)bicyclo[3.1.0]hexane-2-carboxylic acid trifluoroacetate] | – | 101% | 102% | –

The next lines start with results.

Row | Percent generation (%) of Compound IV in human small intestine S9 [1] | Compound's percent residue (%) pH 6.5 [3] | Compound's percent residue (%) pH 1.2 [3] | SMILES | also measured
10 | 20.9% | 102% | 103% | CSCC[C@H](N)C(=O)N[C@]1(C(=O)O)[C@H]2[C@@H](C[C@@H]1F)[C@@H]2C(=O)O.Cl [Ex. D-1, (1S,2S,3S,5R,6S)-2-((S)-2-amino-4-(methylthio)butanamide)-3-fluorobicyclo[3.1.0]hexane-2,6-dicarboxylic acid hydrochloride] | Concentration (ng/mL) of Compound IV in monkey plasma, After 2 hr ([4]; 2 hr): 141 ng/mL; Concentration (ng/mL) of Compound IV in monkey plasma, After 4 hr ([4]; 4 hr): 128 ng/mL
11 | 17.8% | 103% | 100% | C[C@H](N)C(=O)N[C@]1(C(=O)O)[C@H]2[C@@H](C[C@@H]1F)[C@@H]2C(=O)O.Cl [Ex. D-2, (1S,2S,3S,5R,6S)-2-((S)-2-aminopropanamide)-3-fluorobicyclo[3.1.0]hexane-2,6-dicarboxylic acid hydrochloride] | –
12 | <10% | 102% | 100% | Cl.NCC(=O)N[C@]1(C(=O)O)[C@H]2[C@@H](C[C@@H]1F)[C@@H]2C(=O)O [Ex. D-3, (1S,2S,3S,5R,6S)-2-(2-aminoacetamide)-3-fluorobicyclo[3.1.0]hexane-2,6-dicarboxylic acid hydrochloride] | –
13 | 25.9% | – | – | Cl.NCCCC[C@H](N)C(=O)N[C@]1(C(=O)O)[C@H]2[C@@H](C[C@@H]1F)[C@@H]2C(=O)O [Ex. D-5, (1S,2S,3S,5R,6S)-2-((S)-2,6-diaminohexanamide)-3-fluorobicyclo[3.1.0]hexane-2,6-dicarboxylic acid hydrochloride] | –
14 | 11.7% | 102% | 99% | CC(C)C[C@H](N)C(=O)N[C@]1(C(=O)O)[C@H]2[C@@H](C[C@@H]1F)[C@@H]2C(=O)O.Cl [Ex. D-7, (1S,2S,3S,5R,6S)-2-((S)-2-amino-4-methylpentanamide)-3-fluorobicyclo[3.1.0]hexane-2,6-dicarboxylic acid hydrochloride] | –
15 | – | 100% | 100% | CC(OC(=O)O[C@@H]1C[C@H](C)CC[C@H]1C(C)C)OC(=O)[C@H]1[C@@H]2C[C@H](F)[C@@](N)(C(=O)O)[C@@H]21 (stereo partly drawn) [Ex. A-3, (1S,2S,3S,5R,6S)-2-amino-3-fluoro-6-((1-(((((1R,2S,5R)-2-isopropyl-5-methylcyclohexyl)oxy)carbonyl)oxy)ethoxy)carbonyl)bicyclo[3.1.0]hexane-2-carboxylic acid] | –

Source: patent publication US9428483B2, “Prodrug of fluorine-containing amino acid” (TAISHO PHARMACEUTICAL CO., LTD., priority 2012, dated 2016)
